In paper PMC9133015 (Nature Communications, 2022):
Several values for one entry are separate records, joined by “and”; a condition that tells them apart may be missing. Identical values can stand only once.

Legend:
Test in all cases: Kinase inhibitor specificity profiling (Reaction Biology Corporation)
Assay type in all cases: biochemical
Design in all cases: % Enzyme Activity (relative to DMSO controls): concentration or dose not given beside the values
[1] = molecular target: T1, panel of 370 protein kinases (Homo sapiens, UniProt O14578); settings: kinase STK21/CIT
T1 construct: purchased Reaction Biology Corporation (assay service)
T1 sequence (O14578 whole entry): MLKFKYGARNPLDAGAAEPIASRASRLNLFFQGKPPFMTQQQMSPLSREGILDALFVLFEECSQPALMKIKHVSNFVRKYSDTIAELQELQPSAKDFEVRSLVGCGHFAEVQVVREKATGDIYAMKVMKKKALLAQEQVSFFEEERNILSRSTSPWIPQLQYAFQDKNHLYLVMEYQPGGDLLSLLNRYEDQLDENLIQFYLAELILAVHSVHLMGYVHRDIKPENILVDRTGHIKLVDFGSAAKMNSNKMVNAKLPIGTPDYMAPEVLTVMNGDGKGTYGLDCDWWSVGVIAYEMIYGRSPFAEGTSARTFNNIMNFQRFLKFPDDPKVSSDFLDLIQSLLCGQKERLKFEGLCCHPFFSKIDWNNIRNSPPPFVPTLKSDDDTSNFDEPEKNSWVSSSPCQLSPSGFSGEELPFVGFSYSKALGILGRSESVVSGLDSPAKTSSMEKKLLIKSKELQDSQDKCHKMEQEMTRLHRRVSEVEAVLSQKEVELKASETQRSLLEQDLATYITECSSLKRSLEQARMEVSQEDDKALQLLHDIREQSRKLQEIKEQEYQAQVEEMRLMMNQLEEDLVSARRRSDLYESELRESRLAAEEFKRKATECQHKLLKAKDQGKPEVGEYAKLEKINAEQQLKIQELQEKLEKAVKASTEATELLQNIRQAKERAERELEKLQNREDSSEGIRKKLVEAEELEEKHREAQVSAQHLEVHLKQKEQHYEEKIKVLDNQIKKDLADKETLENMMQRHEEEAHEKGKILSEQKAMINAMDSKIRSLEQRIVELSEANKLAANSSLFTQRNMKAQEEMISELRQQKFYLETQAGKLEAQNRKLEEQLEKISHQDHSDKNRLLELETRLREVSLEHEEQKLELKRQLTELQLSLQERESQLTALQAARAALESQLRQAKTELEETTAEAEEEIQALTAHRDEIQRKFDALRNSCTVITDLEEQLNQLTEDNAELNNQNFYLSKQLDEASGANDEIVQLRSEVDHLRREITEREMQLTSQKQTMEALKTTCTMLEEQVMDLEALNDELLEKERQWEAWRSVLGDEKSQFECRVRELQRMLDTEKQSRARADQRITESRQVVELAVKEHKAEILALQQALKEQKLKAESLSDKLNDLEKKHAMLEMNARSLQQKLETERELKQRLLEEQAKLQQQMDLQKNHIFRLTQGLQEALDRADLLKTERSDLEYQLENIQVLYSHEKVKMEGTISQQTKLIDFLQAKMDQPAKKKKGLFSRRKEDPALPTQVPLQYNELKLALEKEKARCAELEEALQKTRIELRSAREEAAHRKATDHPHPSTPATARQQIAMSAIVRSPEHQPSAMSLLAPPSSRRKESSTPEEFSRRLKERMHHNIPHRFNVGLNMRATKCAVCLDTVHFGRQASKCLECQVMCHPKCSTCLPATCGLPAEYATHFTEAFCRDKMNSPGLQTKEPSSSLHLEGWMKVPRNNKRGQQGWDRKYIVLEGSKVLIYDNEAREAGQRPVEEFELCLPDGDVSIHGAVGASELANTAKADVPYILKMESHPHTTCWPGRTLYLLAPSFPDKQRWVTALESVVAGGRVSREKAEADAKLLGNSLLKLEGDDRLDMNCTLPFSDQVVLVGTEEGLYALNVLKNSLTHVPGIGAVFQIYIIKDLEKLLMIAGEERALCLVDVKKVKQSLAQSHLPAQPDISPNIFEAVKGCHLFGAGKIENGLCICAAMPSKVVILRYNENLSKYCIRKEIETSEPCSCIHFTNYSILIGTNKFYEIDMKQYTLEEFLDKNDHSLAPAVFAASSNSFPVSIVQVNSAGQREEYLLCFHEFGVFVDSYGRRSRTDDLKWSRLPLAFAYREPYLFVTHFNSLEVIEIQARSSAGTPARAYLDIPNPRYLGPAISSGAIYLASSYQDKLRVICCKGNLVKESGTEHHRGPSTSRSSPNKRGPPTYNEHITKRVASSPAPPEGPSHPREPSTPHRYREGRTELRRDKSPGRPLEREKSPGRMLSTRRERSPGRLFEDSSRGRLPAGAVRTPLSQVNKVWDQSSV

[2] = molecular target: T2, panel of 370 protein kinases (Homo sapiens, UniProt O60674); settings: kinase JAK2
T2 construct: purchased Reaction Biology Corporation (assay service)
T2 sequence (O60674 whole entry): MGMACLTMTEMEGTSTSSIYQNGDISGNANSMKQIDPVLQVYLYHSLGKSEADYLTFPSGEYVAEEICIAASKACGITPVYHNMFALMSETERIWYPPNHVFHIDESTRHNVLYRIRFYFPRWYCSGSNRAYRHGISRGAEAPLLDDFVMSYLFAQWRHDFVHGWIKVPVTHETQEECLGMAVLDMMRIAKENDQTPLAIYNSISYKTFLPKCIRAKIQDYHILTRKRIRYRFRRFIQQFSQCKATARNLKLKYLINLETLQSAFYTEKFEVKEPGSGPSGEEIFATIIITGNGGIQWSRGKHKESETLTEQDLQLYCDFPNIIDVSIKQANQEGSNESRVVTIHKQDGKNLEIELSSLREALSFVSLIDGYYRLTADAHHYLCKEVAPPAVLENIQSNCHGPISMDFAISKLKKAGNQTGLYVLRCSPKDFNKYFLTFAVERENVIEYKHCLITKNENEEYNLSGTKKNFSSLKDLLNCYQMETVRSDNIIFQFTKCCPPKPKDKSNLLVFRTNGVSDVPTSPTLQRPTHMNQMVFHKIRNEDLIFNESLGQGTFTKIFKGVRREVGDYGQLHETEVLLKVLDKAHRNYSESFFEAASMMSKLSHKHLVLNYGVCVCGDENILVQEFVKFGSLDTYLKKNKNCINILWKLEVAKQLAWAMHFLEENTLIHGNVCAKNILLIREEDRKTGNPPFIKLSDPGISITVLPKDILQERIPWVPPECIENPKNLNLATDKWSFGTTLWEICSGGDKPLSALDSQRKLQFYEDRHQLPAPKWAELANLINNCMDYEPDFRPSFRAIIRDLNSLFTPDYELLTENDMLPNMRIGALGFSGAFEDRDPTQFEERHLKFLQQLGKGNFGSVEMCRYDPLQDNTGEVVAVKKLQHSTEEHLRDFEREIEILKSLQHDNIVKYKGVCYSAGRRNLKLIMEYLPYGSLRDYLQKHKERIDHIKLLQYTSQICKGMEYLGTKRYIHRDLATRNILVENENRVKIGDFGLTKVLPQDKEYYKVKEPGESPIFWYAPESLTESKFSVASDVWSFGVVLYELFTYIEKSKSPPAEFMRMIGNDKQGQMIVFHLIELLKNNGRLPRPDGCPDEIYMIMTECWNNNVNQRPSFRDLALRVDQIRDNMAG

[3] = molecular target: T3, panel of 370 protein kinases (Homo sapiens, UniProt O75116); settings: 2 h, kinase ROCK2; read-out: % Enzyme Activity (relative to DMSO controls)
T3 construct: purchased Reaction Biology Corporation (assay service)

[4] = molecular target: T4, panel of 370 protein kinases (Homo sapiens, UniProt P07333); settings: 2 h, kinase FMS; read-out: % Enzyme Activity (relative to DMSO controls)
T4 construct: purchased Reaction Biology Corporation (assay service)

[5] = molecular target: T5, panel of 370 protein kinases (Homo sapiens, UniProt P31751); settings: 2 h, kinase AKT2; read-out: % Enzyme Activity (relative to DMSO controls)
T5 construct: purchased Reaction Biology Corporation (assay service)

[6] = molecular target: T6, panel of 370 protein kinases (Homo sapiens, UniProt P50613); settings: 2 h, kinase CDK7/cyclin H; read-out: % Enzyme Activity (relative to DMSO controls)
T6 construct: purchased Reaction Biology Corporation (assay service)
T6 sequence (P50613 whole entry): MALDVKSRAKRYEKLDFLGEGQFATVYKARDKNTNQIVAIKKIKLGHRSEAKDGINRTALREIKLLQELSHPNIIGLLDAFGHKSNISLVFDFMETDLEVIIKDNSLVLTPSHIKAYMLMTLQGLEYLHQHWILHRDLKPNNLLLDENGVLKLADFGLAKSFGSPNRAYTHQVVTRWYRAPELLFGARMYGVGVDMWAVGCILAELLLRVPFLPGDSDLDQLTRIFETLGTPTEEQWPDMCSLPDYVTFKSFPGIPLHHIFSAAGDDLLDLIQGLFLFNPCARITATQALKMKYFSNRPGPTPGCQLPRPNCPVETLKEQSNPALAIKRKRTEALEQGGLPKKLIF

[7] = molecular target: T7, panel of 370 protein kinases (Homo sapiens, UniProt P53350); settings: 2 h, kinase PLK1; read-out: % Enzyme Activity (relative to DMSO controls)
T7 construct: purchased Reaction Biology Corporation (assay service)

[8] = molecular target: T8, panel of 370 protein kinases (Homo sapiens, UniProt Q04759); settings: 2 h, kinase PKCtheta; read-out: % Enzyme Activity (relative to DMSO controls)
T8 construct: purchased Reaction Biology Corporation (assay service)

[9] = molecular target: T9, panel of 370 protein kinases (Homo sapiens, UniProt Q08345); settings: 2 h, kinase DDR1; read-out: % Enzyme Activity (relative to DMSO controls)
T9 construct: purchased Reaction Biology Corporation (assay service)

[10] = molecular target: T10, panel of 370 protein kinases (Homo sapiens, UniProt Q13555); settings: 2 h, kinase CAMK2g; read-out: % Enzyme Activity (relative to DMSO controls)
T10 construct: purchased Reaction Biology Corporation (assay service)

[11] = molecular target: T11, panel of 370 protein kinases (Homo sapiens, UniProt Q15418); settings: 2 h, kinase RSK1; read-out: % Enzyme Activity (relative to DMSO controls)
T11 construct: purchased Reaction Biology Corporation (assay service)

[12] = molecular target: T12, panel of 370 protein kinases (Homo sapiens, UniProt Q16816); settings: 2 h, kinase PHKg1; read-out: % Enzyme Activity (relative to DMSO controls)
T12 construct: purchased Reaction Biology Corporation (assay service)

[13] = molecular target: T13, panel of 370 protein kinases (Homo sapiens, UniProt Q5VT25); settings: 2 h, kinase MRCKa/CDC42BPA; read-out: % Enzyme Activity (relative to DMSO controls)
T13 construct: purchased Reaction Biology Corporation (assay service)

[14] = molecular target: T14, panel of 370 protein kinases (Homo sapiens, UniProt Q7KZI7); settings: 2 h, kinase MARK2/PAR-1Ba; read-out: % Enzyme Activity (relative to DMSO controls)
T14 construct: purchased Reaction Biology Corporation (assay service)

[15] = molecular target: T15, panel of 370 protein kinases (Homo sapiens, UniProt Q8TD19); settings: 2 h, kinase NEK9; read-out: % Enzyme Activity (relative to DMSO controls)
T15 construct: purchased Reaction Biology Corporation (assay service)

[16] = molecular target: T16, panel of 370 protein kinases (Homo sapiens, UniProt Q96RR4); settings: 2 h, kinase CAMKK2; read-out: % Enzyme Activity (relative to DMSO controls)
T16 construct: purchased Reaction Biology Corporation (assay service)

[17] = molecular target: T17, panel of 370 protein kinases (Homo sapiens, UniProt Q9BZL6); settings: 2 h, kinase PKD2/PRKD2; read-out: % Enzyme Activity (relative to DMSO controls)
T17 construct: purchased Reaction Biology Corporation (assay service)

[18] = molecular target: T18, panel of 370 protein kinases (Homo sapiens, UniProt Q9H2G2); settings: 2 h, kinase SLK/STK2; read-out: % Enzyme Activity (relative to DMSO controls)
T18 construct: purchased Reaction Biology Corporation (assay service)

[19] = molecular target: T19, panel of 370 protein kinases (Homo sapiens, UniProt Q9NRM7); settings: kinase LATS2
T19 construct: purchased Reaction Biology Corporation (assay service)
T19 sequence (Q9NRM7 whole entry): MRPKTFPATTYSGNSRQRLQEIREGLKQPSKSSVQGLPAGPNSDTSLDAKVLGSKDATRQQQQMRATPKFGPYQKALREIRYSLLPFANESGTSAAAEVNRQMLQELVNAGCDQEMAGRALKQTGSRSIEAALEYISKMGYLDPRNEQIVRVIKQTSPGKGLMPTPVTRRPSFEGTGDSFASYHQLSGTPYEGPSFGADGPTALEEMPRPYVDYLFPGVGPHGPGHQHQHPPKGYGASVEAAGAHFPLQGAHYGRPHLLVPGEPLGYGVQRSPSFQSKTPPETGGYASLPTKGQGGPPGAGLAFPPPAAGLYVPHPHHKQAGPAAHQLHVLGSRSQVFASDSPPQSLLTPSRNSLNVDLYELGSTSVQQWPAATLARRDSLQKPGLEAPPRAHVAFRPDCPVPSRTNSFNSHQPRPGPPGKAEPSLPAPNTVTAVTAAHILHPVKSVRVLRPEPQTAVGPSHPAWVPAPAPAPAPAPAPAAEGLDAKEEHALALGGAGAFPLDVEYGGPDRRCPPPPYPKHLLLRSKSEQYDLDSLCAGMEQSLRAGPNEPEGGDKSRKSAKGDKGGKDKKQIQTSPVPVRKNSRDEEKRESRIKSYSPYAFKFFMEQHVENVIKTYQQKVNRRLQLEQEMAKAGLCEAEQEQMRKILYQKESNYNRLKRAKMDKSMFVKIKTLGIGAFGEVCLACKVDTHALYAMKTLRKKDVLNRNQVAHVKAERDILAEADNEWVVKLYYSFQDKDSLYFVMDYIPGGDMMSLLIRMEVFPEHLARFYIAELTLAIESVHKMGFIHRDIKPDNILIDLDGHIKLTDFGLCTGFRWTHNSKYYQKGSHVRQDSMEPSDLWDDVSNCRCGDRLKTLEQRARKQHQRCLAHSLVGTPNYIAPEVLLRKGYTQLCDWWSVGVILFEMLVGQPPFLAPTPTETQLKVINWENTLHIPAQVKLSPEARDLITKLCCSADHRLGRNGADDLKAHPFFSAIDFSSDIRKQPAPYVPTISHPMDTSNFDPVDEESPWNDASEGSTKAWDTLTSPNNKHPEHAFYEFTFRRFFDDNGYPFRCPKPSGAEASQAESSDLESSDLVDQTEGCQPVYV

[20] = molecular target: T20, panel of 370 protein kinases (Homo sapiens, UniProt Q9NWZ3); settings: kinase IRAK4
T20 construct: purchased Reaction Biology Corporation (assay service)
T20 sequence (Q9NWZ3 whole entry): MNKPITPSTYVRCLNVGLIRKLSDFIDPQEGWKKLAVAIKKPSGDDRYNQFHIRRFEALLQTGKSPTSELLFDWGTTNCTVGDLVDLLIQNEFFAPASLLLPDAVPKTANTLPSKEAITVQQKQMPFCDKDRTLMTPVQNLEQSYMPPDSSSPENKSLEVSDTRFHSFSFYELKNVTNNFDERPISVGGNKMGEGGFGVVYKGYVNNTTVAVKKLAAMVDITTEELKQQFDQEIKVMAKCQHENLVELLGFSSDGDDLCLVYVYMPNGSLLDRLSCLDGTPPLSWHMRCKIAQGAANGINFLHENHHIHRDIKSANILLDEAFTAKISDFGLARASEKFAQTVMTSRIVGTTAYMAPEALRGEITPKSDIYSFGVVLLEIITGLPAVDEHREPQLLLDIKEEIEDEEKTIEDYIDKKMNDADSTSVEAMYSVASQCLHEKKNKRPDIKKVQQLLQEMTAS

[21] = molecular target: T21, panel of 370 protein kinases (Homo sapiens, UniProt Q9UBS0); settings: 2 h, kinase p70S6Kb/RPS6KB2; read-out: % Enzyme Activity (relative to DMSO controls)
T21 construct: purchased Reaction Biology Corporation (assay service)

[22] = molecular target: T22, panel of 370 protein kinases (Homo sapiens, UniProt Q9Y3S1); settings: 2 h, kinase WNK2; read-out: % Enzyme Activity (relative to DMSO controls)
T22 construct: purchased Reaction Biology Corporation (assay service)

CCN1CCN(C(=O)c2ccc(Nc3ncc(F)c(-c4ccc5nc(N(C)C)sc5c4)n3)nc2)CC1 [YK-2-69]
% Enzyme Activity (relative to DMSO controls) [1]: 95.11% and 94.67%
% Enzyme Activity (relative to DMSO controls) [2]: 101.21% and 93.21%
remaining activity at 1 µM [3]: 93.2%
remaining activity at 1 µM [4]: 94.5%
remaining activity at 1 µM [5]: 98.6%
remaining activity at 1 µM [6]: 99.1%
remaining activity at 1 µM [7]: 115%
remaining activity at 1 µM [8]: 103%
remaining activity at 1 µM [9]: 86.2%
remaining activity at 1 µM [10]: 86%
remaining activity at 1 µM [11]: 102%
remaining activity at 1 µM [12]: 89.4%
remaining activity at 1 µM [13]: 111%
remaining activity at 1 µM [14]: 83.2%
remaining activity at 1 µM [15]: 105%
remaining activity at 1 µM [16]: 94.6%
remaining activity at 1 µM [17]: 80.8%
remaining activity at 1 µM [18]: 94.5%
% Enzyme Activity (relative to DMSO controls) [19]: 96.27% and 92.88%
% Enzyme Activity (relative to DMSO controls) [20]: 99.99% and 96.94%
remaining activity at 1 µM [21]: 99.4%
remaining activity at 1 µM [22]: 99.9%
